Data reported in patent US5312816A, “Method of combatting osteoporosis in mammalian subjects, utilizing organic boron compounds” (priority 1993, dated 1994).
Where two headings read alike, the source gives them in different places.

Legend:
[1] = target: T1, Prostaglandin synthetase (Bos taurus, UniProt O62664); test: Prostaglandin synthetase (cyclooxygenase), purified beef seminal vesicle; type: biochemical; settings: Table IX; commercial enzyme preparation; read-out: Beef Prostaglandin Cyclooxygenase IC50
T1 construct: Prostaglandin synthetase purified beef seminal vesicle; from tissue
T1 sequence (O62664 25-600): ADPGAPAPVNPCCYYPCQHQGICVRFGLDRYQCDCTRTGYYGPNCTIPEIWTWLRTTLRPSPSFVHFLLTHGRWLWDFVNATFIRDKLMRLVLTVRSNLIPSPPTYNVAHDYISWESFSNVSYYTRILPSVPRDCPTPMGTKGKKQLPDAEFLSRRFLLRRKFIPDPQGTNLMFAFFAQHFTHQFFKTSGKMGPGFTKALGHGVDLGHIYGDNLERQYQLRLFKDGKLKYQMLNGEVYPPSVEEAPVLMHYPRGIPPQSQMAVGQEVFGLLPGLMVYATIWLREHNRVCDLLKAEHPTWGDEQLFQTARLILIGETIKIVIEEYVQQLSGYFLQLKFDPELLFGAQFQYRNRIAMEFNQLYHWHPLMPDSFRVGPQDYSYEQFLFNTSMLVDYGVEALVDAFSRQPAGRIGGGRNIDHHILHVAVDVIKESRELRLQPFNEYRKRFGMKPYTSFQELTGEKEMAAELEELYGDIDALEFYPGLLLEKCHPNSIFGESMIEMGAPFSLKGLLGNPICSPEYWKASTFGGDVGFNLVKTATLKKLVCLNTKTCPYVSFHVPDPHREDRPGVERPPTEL
Source text: Prostaglandin synthetase purified beef seminal vesicle ^3 H arachidonic acid (86.2 Ci/mmol), tlc separation.

[2] = target: T2, Cathepsin D (Homo sapiens, UniProt P07339); test: Human osteoporosis fibroblasts cathepsin D (azo-casein) activity; type: cell-based
T2 construct: azocasein assay pH 5.0
T2 sequence (P07339 65-412): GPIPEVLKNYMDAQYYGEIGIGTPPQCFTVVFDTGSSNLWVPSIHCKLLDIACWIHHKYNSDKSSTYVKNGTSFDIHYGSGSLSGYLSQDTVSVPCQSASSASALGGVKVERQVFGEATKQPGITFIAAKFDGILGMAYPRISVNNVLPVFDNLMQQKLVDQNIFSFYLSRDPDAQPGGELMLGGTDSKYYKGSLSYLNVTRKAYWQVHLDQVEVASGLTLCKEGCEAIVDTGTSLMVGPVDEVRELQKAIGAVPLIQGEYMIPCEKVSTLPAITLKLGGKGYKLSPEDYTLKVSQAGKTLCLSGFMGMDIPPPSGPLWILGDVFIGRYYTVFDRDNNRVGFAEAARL
Source text: Osteoporosis Human Fibroblast-CRL-1140, Be SA1
Acid Cathepsin D -azocasein-pH 5.0, hydrolytic azo-peptide produce 366 nm.

`CCCCCCCCCCCCCCCC[N+](C)(C)[BH2-]C(=O)O` [Compound 7, N,N-Dimethylhexadecylamine-carboxyborane] was tested, and the IC50 [1] was 2860 nM, the IC50 ([2]; Table VIIIA, osteoporosis fibroblasts in vitro, read-out: Cathepsin Azo-casein IC-50) was 2060 nM and the IC50 ([2]; Table X, human osteoporosis fibroblasts, DMEM +10% FCS + P/S, read-out: Cathepsin D IC50) was 2060 nM.
